Reference: US20250188085A1, “COMPOSITIONS AND METHODS FOR INHIBITION OF RAS” (THERAS, INC., priority 2022, published 2025)
Where two headings read alike, the source gives them in different places.

Columns and labels:
pERK in NCI-H358 cells = experiment: Cell-based pERK HTRF assay; conditions: 30 min incubation, read-out: pERK in NCI-H358 cell inhibition IC50
Description: pERK assays (Perkin Elmer) were used to determine the effectiveness of compounds of the present disclosure in disrupting KRAS G12C protein/effector signaling in cells.
On Day 1, cells (NCI-H358) were seeded into 96-well plates at 4×10^4 cells/well in complete growth media (RPMI, 10% FBS).
On Day 2, cells were treated with compounds at 0.25% DMSO. The source plate was created with compounds diluted in media at 5-fold the final assay concentration. The compounds were run in a 9-point concentration curve starting at 75 μM, with a 3-fold dilution between concentrations. 20 μL was transferred onto the cell plates (final volume in wells was 100 μL). Plates were harvested after 30 min incubation by aspirating media and adding kit-supplied 1× supplemented lysis buffer to all wells (75 μl per well). Plates were then placed on a plate shaker and incubated at 850 rpm for an additional 30 min.
Antibody mixture solution was prepared by diluting aliquoted d2 and Eu Cryptate antibodies 1:20 in kit supplied detection buffer, then mixed the diluted antibodies solutions (1:1 v:v). 4 μL of this solution was then added to a 384-well detection plate (Perkin Elmer; 6008230).
Samples were homogenized by pipetting up and down and then transferred (16 μL of cell lysates) from the 96-well cell culture plate to two wells of the HTRF 384-well detection plate containing the antibody solution. Plates were centrifuged (524 g for Imin) and allowed to incubate between 4 and 24 h at room temperature. Maximum signal is reached after 4 h incubation time and remains stable over a period of 24 hours. Therefore, readings can be made between 4 and 24 h of incubation. Plates were centrifuged again (524 g for Imin) and analyzed on the En Vision plate reader using the following settings: Excitation 320 nm, Bandwidth 75 nm; Emission 615 nm, Bandwidth 85 nm; Gain 100%; Flashes 100; Lag 60 μs.

[1] = molecular target: T1, GppNHp-loaded KRAS4b (amino acids 1-169) G12C/C118S protein (Homo sapiens, UniProt P01116, C118S/G12C); experiment: Covalent cysteine 12 modification by MALDI-TOF MS, GppNHp-loaded KRAS G12C; type: binding; conditions: 15 minutes reaction time point
T1 construct: KRAS4b (amino acids 1-169) G12C/C118S protein; made in house
Description: (§1) Reaction: 1 μM of GppNHp-, GTP-, or GDP-loaded KRAS4b (amino acids 1-169) G12C/C118S protein (produced in-house by Protein Expression Laboratory, FNLCR/Leidos Biomed) in 20 mM 4-(2-hydroxyethyl)-1-piperazineethanesulfonic acid (HEPES) buffer containing 150 mM NaCl, 1 mM MgCl2, pH 7.3 was prepared freshly before assay. Ten-μL aliquots of protein were dispensed onto low volume 384-well plate, then 375 nL DMSO, and 25 nL of tested compounds from 5 mM DMSO stocks were added to appropriate wells using ECHO 555 acoustic liquid handler (Labcyte Inc.). For each reaction/assay, three blanks were prepared by mixing 10 μL of protein solution with 400 nL DMSO. The contents of the wells were carefully mixed by aspiration, and then each plate was sealed with an adhesive cover, centrifuged at 2000 g for 1 minute, and kept in the dark at room temperature until 5 min, 15 min, 30 min, or 2 h collections.
(§2) Target pretreatment: Before each assay MALDI target (Bruker MPT 384 ground steel BC) was pre-treated by pipetting on each spot 0.75 μL of saturated sinapinic acid in acetonitrile (ACN).
(§3) Sample preparation: At collection time point, 2 μL of reaction mixtures were pipetted out into 20 μL MALDI matrix solution (saturated solution of sinapinic acid in 1:1 ACN:water solution containing 0.75% trifluoroacetic acid (TFA)) deposited on 384 well polypropylene plate. Resulting solution was mixed by aspiration, centrifuged at 2000 g for 1 minute, then 1 μL aliquots were dispensed on pre-treated MALDI target using Beckman Coulter Biomek FXP 96/384-Span-8 Laboratory Automation Workstation. Finally, the MALDI target was dried under mild vacuum to produce spots with fine crystalline structure.
(§4) Measurements: MALDI-TOF measurements were performed on a Bruker Daltonics rapiflex Tissuetyper TOF-TOF mass spectrometer using linear mode and mass range from 18.6 to 21.6 kDa. Detector gain was set to 3.3× (483 V), sample rate to 5 GS/s, real time smoothing to medium (175 MHz), laser smart beam pattern was set to: “MS Thin Layer M5”, and the laser frequency was 10000 Hz. Spectra were automatically collected using custom Auto Xecute method. Laser power was auto adjusted using fuzzy control. The peak selection range was set to be between 19000 and 21500 Da. Peak evaluation uses half width parameter set to be smaller than 40 Da for processed spectrograms (centroid peak detection; smoothed by SavitzkyGolay algorithm using 7 m/z width and 2 cycles; baseline was subtracted using median algorithm with flatness 1 and median level 0.01). Fuzzy control used Proteins/Oligonucleotides protocol with minimum half width 1/10 times above threshold. Up to 40000 satisfactory shots were collected in 10000 shot steps. Dynamic termination was implemented to finish data collection when peak signal/noise ratio was reaching value of 50.
(§5) Spectra processing: Spectra were smoothed by SavitzkyGolay algorithm using 7 m/z width and three cycles. Centroid peak detection algorithm was used with signal to noise threshold set to 6, relative intensity threshold 4%, peak width 10 m/z and median baseline subtraction using flatness of 1 and median level of 0.01. Peak intensity and area under the peak were evaluated and recorded for all peaks between 19,300 Da and 21,550 Da.
(§6) Calculation of percent modification: Percent modification was calculated as a ratio of peak height for protein modified by compound to sum of peak height of remaining protein plus peak height for protein modified by compound. If multiple modifications were observed each was calculated as a ratio of peak height for given modification versus sum of peak heights for all observed protein species. Data reported in Table 5 are from 15 minutes reaction time point.

[2] = molecular target: T2, Avi-KRAS G12C (1-169) GppNHp/RAF1 RBD-3×FLAG (52-151) (Homo sapiens, UniProt P01116, G12C); experiment: Raf1 RBD-KRAS G12C-GppNHp disruption (protein:protein interaction HTRF assay); type: biochemical
T2 construct: Avi-KRAS G12C (1-169) GppNHp/RAF1 RBD-3×FLAG (52-151)
Description: A protein: protein (PPI) interaction Homogeneous Time Resolved Fluorescence (HTRF) assay was used to determine the effectiveness of compounds of the present disclosure in disrupting KRAS G12C protein and effector (RAF1 or PIK3CA) binding.
The HTRF assay used the following reagents and proteins: 50 nM Avi-KRAS G12C Q25A (1-169) GppNHp/3×FLAG-PI3K CA (157-299); 50 nM Avi-KRAS G12C (1-169) GppNHp/RAF1 RBD-3×FLAG (52-151); 35 nM Avi-PI3K RBD-3×FLAG; Assay Buffer: 50 mM Tris pH 7.5, 100 mM NaCl, 5 mM MgCl2, 0.1% BSA, 0.01% Tween 20, 10% DMSO; Bead Buffer: 50 mM Tris pH 7.5, 0.01% Tween 20; Assay volume: 20 μL (384 well plate-low volume format); and Compound titration: 30-0.02 μM, 3× dilution series.
The HTRF assay employed the following protocol:
Compounds were dispensed in assay plate (384-well, Grenier Bione #784075) using Echo (model 555) with dose response settings: 200 nL final volume, titration from 100 μM as a 10-point dilution series. KRAS proteins were prepared in assay buffer, and dispensed on plates, 5 μL per well, then incubated for 1 h at room temperature, with 700 rpm shaking. RAF1 RBD and PI3K RBD CA were prepared in assay buffer, dispensed onto plates, 5 μL per well, and then incubated for 1 h at room temperature, with 700 rpm shaking. Reagent mix was then prepared and dispensed on plates, 10 μL per well, and then incubated for 1 h at room temperature, with 700 rpm shaking.
Plates were analyzed on an Envision plate reader using the following setting: Excitation 320 nm, Bandwidth 75 nm; Emission 615 nm, Bandwidth 85 nm; Gain 100%; Flashes 100; Lag 60 μs. Data was reported as percentage of activity, with DMSO as 100%. Data was plotted and analyzed using Prism 8.

[3] = molecular target: T3, GDP-loaded KRAS4b (amino acids 1-169) G12C/C118S protein (Homo sapiens, UniProt P01116, C118S/G12C); experiment: Covalent cysteine 12 modification by MALDI-TOF MS, GDP-loaded KRAS G12C; type: binding; conditions: 15 minutes reaction time point
T3 construct: KRAS4b (amino acids 1-169) G12C/C118S protein; made in house
Description: as §1, §2, §3, §4, §5, §6

| SMILES | IC50 (pERK in NCI-H358 cells) [nM] | GppNHp-KRAS G12C percent of modification [1] | IC50 [2] [nM] | GDP-KRAS G12C percent of modification [3] | IC50 (pERK in NCI-H358 cells; Homo sapiens, NCI-H358, 0.5 h) [nM] |
| --- | --- | --- | --- | --- | --- |
| C=CC(=O)N1CC[C@@H](Oc2nc(OC[C@@H]3C[C@@H](OC)CN3C)nc3c(F)c(-c4ccc(F)c5sc(N)nc45)c(C(F)(F)F)cc23)C1 (single isomer, unassigned) [Compound 15] | > 1000 | D (percent of modification <10%) | > 20000 | D (percent of modification <10%) |  |
| C=CC(=O)N1CC[C@@H](Oc2nc(OC[C@]34CCCN3C[C@H](OC)C4)nc3c(F)c(-c4ccc(F)c5sc(N)nc45)c(C(F)(F)F)cc23)C1 (single isomer, unassigned) [Compound 31] | > 1000 | D (percent of modification <10%) | 500 to 5000 | D (percent of modification <10%) |  |
| C=CC(=O)N1CC(Oc2nc(OC[C@@H]3CCCN3C)nc3c(F)c(-c4ccc(F)c5sc(N)nc45)c(Cl)cc23)C1 [Compound 1] |  | C (10%≤modification <50%) | 500 to 5000 | A (percent of modification ≥70%) | 100 to 1000 |
| CC#CC(=O)N1CC(Oc2nc(OC[C@@H]3CCCN3C)nc3c(F)c(-c4ccc(F)c5sc(N)nc45)c(Cl)cc23)C1 [Compound 2] |  | D (percent of modification <10%) | 500 to 5000 | B (50≤percent of modification <70%) | 100 to 1000 |
| C=CC(=O)N1CC(Oc2nc(OC[C@@]34CCCN3C[C@H](F)C4)nc3c(F)c(-c4ccc(F)c5sc(N)nc45)c(C(F)(F)F)cc23)C1 [Compound 7, 1-(3-((7-(2-amino-7-fluorobenzo[d]thiazol-4-yl)-8-fluoro-2-(((2R,7aS)-2-fluorotetrahydro-1H-pyrrolizin-7a (5H)-yl)methoxy)-6-(trifluoromethyl)quinazolin-4-yl)oxy)azetidin-1-yl) prop-2-en-1-one] |  | D (percent of modification <10%) | > 20000 | D (percent of modification <10%) | > 1000 |
| C=CC(=O)N1CC(Oc2nc(OC[C@@H]3C[C@@H](F)CN3C)nc3c(F)c(-c4ccc(F)c5sc(N)nc45)c(C(F)(F)F)cc23)C1 [Compound 23] |  | C (10%≤modification <50%) | 500 to 5000 | B (50≤percent of modification <70%) | 100 to 1000 |
| C=CC(=O)N1CC(Oc2nc(OC[C@@H]3C[C@@H](OC)CN3C)nc3c(F)c(-c4ccc(F)c5sc(N)nc45)c(C(F)(F)F)cc23)C1 [Compound 26] |  | C (10%≤modification <50%) | 500 to 5000 | A (percent of modification ≥70%) | ≤ 100 |

Continued, values first:

| IC50 (pERK in NCI-H358 cells) [nM] | GppNHp-KRAS G12C percent of modification [1] | IC50 [2] [nM] | GDP-KRAS G12C percent of modification [3] | IC50 (pERK in NCI-H358 cells; Homo sapiens, NCI-H358, 0.5 h) [nM] | SMILES |
| --- | --- | --- | --- | --- | --- |
| 100 to 1000 | D (percent of modification <10%) | 500 to 5000 | D (percent of modification <10%) |  | C=CC(=O)N1CC[C@@H](Oc2nc(OC[C@@]34CCCN3C[C@H](F)C4)nc3c(F)c(-c4ccc(F)c5sc(N)nc45)c(C(F)(F)F)cc23)C1 (single isomer, unassigned) [Compound 12] |
| ≤ 100 | B (50≤percent of modification <70%) | ≤ 500 | A (percent of modification ≥70%) |  | C=CC(=O)N1CC[C@@H](Oc2nc(OC[C@@H]3C[C@@H](OC)CN3C)nc3c(F)c(-c4ccc(F)c5sc(N)nc45)c(C(F)(F)F)cc23)C1 (single isomer, unassigned) [Compound 14] |
| ≤ 100 | A (percent of modification ≥70%) | ≤ 500 | A (percent of modification ≥70%) |  | C=CC(=O)N1CC[C@@H](Oc2nc(OC[C@]34CCCN3C[C@H](OC)C4)nc3c(F)c(-c4ccc(F)c5sc(N)nc45)c(C(F)(F)F)cc23)C1 (single isomer, unassigned) [Compound 30] |
|  | B (50≤percent of modification <70%) | ≤ 500 | A (percent of modification ≥70%) | 100 to 1000 | C=CC(=O)N1CC[C@@H](Oc2nc(OC[C@@H]3CCCN3C)nc3c(F)c(-c4ccc(F)c5sc(N)nc45)c(C(F)(F)F)cc23)C1 [Compound 13] |
|  | C (10%≤modification <50%) | ≤ 500 | A (percent of modification ≥70%) | ≤ 100 | C=CC(=O)N1CC(Oc2nc(OC[C@@H]3CCCN3C)nc3c(F)c(-c4ccc(F)c5sc(N)nc45)c(C(F)(F)F)cc23)C1 [Compound 22] |
